Test results taken from patent publication US6495594B2, “Biologically active analogs of discodermolide” (Harbor Branch Oceanographic Institution, Inc., priority 2000, dated 2002).
Entries after “also recorded” stand apart in the source; their conditions may differ.

Experiments:
[1] = see U.S. Pat. No. 6,127,406; cited from earlier work
A549 human lung cells = assay: Cell cycle progression by flow cytometry; type: cell-based
Protocol: Cell cycle studies were initiated in order to pinpoint a specific phase within the cell cycle in which discodermolide analogs were exerting their antiproliferative effect. A549 human lung cells were used as cell cycle targets to compare the effects of discodermolide and discodermolide analogs on perturbation of the cell cycle. Cell cycle analyses were performed as follows: A549 cells were incubated at 37° C. in 5% CO2 in air in the presence or absence of varying concentrations of discodermolide or discodermolide analogs for 24 hr. Cells were harvested, fixed in ethanol, washed, and stained with 0.02 mg/mL of propidium iodide (P.I.) together with 0.1 mg/mL of RNAse A. Stained preparations were analyzed on a Coulter EPICS ELITE flow cytometer with 488 nm excitation. Fluorescence measurements and resulting DNA histograms were collected from at least 10,000 P.I. stained cells at an emission wavelength of 690 nm. Raw histogram data was further analyzed using a cell cycle analysis program (Multicycle, Phoenix Flow Systems).

[2] = test system: P388 murine leukemia cell lines; assay: In vitro proliferation of P388 cells (MTT); type: cell-based; settings: 48-h exposure
Protocol: Discodermolide and discodermolide analogs were analyzed as to their effects on proliferation of A549 human adenocarcinoma and P388 murine leukemia cell lines. P388 cells were obtained from Dr. R. Camalier, National Cancer Institute, Bethesda, MD, and A549 cells were obtained from American Type Culture Collection, Rockville, MD. All cell lines were maintained in tissue culture medium (TCM; Roswell Park Memorial Institute RPMI 1640 supplemented with 100 U/mL penicillin, […], 60 […], 18 mM HEPES, 0.05 mg/mL gentamicin (Life Technologies, Gaithersburg, MD) and 10% fetal bovine serum) and cultured in plastic tissue culture flasks at 37° C. in humidified air containing 5% CO2. Stock cultures of P388 cells were subcultured 1:20 in fresh TCM every 2 to 3 days. Stock cultures of A549 cells were subcultured 1:10 every 3 to 4 days. To assess the antiproliferative effects of agents against the cells, 200 μL cultures (96-well tissue culture plates, Nunc, Denmark) were established at 1 ×10^5 cells/mL in TCM or TCM containing the test agent at 0.03-5.0 μg/mL. After 48-h exposures, P388 cells were enumerated using 3-[4,5-dimethylthiazol-2-yl]-2,5-diphenyltetrazolium bromide (MTT) as described in the literature (M. C. Alley, et al., Cancer Res. 48:589, 1988). A549 cells were enumerated in the same manner after 72 hours exposure. The results were expressed as percent inhibition compared to the negative (no drug) control. Positive drug controls of varying dilutions of 5-fluorouracil and adriamycin (Sigma Chemical Co., St Louis, MO) were included to monitor drug sensitivity of the cell line.
To quantitate the effects on cell proliferation and resulting IC50 values, 75 μL of warm growth media containing 5 mg/mL MTT is added to each well, cultures returned to the incubator, and left undisturbed for 3 hours. To spectrophotometrically quantitate formation of reduced formazan, plates are centrifuged (500×g, 10 minutes), culture fluids removed by aspiration, and 200 μL of acidified isopropanol (2 mL concentrated HCl /liter isopropanol) added per well. The absorbance of the resulting solutions is measured in a plate reader (TECAN Spectra SLT; TECAN U.S., Research Triangle Park, N.C.) at 570 nm and a 650 nm reference filter. The absorbance of test wells is divided by the absorbance of drug-free wells, and the concentration of agent that results in 50% of the absorbance of untreated cultures (IC50) is determined by linear regression of logit-transformed data (D. J. Finney, Statistical Method in Biological Assay, third ed., pp. 316-348, Charles Griffin Co., London, 1978). A linear relationship between tumor cell number and formazan production has been routinely observed over the range of cell densities observed in these experiments. The two standard drug controls (indicated above) are included in each assay as a check to monitor the drug sensitivity of each of the cell lines and IC50 values are determined for each drug-cell combination.

[3] = test system: A549 human adenocarcinoma tumor cells; assay: Microtubule bundling patterns in tumor cells by immunofluorescence; type: cell-based; set-up: key to Microtubule bundling in A549 cells: −: no effect; +/−: minimal or questionable effect; +: weak effect; ++: strong effect; +++: very strong effect equivalent to discodermolide
Protocol: Discodermolide and discodermolide analogs were evaluated as to their effects on the morphology of the microtubule network of cells using mouse anti-alpha-tubulin monoclonal antibody.
On day one, 7×10^4 adherent A549 human adenocarcinoma tumor cells were cultured in TCM overnight at 37° C. in 5% CO2 on 22 mm^2 cover slips in 6-well microtiter plates. On day two, TCM was removed and replaced with 10-1000 nM discodermolide or analog in TCM or TCM without drug (control) and incubated overnight at 37° C. in 5% CO2. On day three, TCM was removed and cells attached to cover slips were fixed with a 3.7% formaldehyde solution in Dulbecco's PBS for 10 minutes at room temperature. Cells were permeabilized with a 2% Triton X-100 solution, 2 mL per well, for 5 minutes at room temperature and washed twice in Dulbecco's PBS prior to staining.
To each well containing cells attached to cover slips a 2 mL volume of mouse anti- alpha-tubulin monoclonal antibody (Cat# T-5168, Sigma Chemical Co., St. Louis, Mo.) diluted 1:1000 in Dulbecco's phosphate buffered saline (D-PBS) was added and the cells incubated at room temperature for 45 minutes. Cover slips were rinsed once with D-PBS. A 2 mL volume of goat-anti-mouse-IgG-FITC conjugated antibody (Cat# T-5262, Sigma Chemical Co., St. Louis, Mo.) diluted 1:1000 in D-PBS was added and the cells incubated at room temperature for 45 minutes. Cover slips were rinsed once in D-PBS and DNA was stained with 0.02 mg/mL propidium iodide together with 0.1 mg/mL of ribonuclease A (RNAse) A in D-PBS at 37° C. for 30 minutes. Cover slips were rinsed three times with sterile distilled water, air-dried and mounted on slides with SlowFade™ antifade solution (Molecular Probes, Eugene, Oreg.) and observed under the microscope using epifluorescence illumination for the presence of abnormal aster and microtubule bundle formations.

C=CC=CC(C)C(OC(N)=O)C(C)C(O)C(C)CC(C)=CC(C)C(O)C(C)C=CC(CC1OC(=O)C(C)C(O)C1C)OC(C)=O (stereo not drawn) [discodermolide-7-acetate]
Cytotoxicity compared to the parent molecule [1]: greater cytotoxicity

C=CC=CC(C)C(OC(N)=O)C(C)C(O)C(C)CC(C)=CC(C)C(OC(C)=O)C(C)C=CC(O)CC1OC(=O)C(C)C(OC(C)=O)C1C (stereo not drawn) [discodermolide-3,11-diacetate]
Cytotoxicity compared to the parent molecule [1]: reduced cytotoxicity

C=CC=CC(C)C(OC(N)=O)C(C)C(OC(C)=O)C(C)CC(C)=CC(C)C(O)C(C)C=CC(O)CC1OC(=O)C(C)C(OC(C)=O)C1C (stereo not drawn) [discodermolide-3,17-diacetate]
Cytotoxicity compared to the parent molecule [1]: dramatic reduction in the activity

C=CC=CC(C)C(OC(N)=O)C(C)C(OC(C)=O)C(C)CC(C)=CC(C)C(O)C(C)C=CC(CC1OC(=O)C(C)C(OC(C)=O)C1C)OC(C)=O (stereo not drawn) [discodermolide-3,7,17-triacetate]
Cytotoxicity compared to the parent molecule [1]: dramatic reduction in the activity

C=CC=CC(C)C(OC(N)=O)C(C)C(OC(C)=O)C(C)CC(C)=CC(C)C(OC(C)=O)C(C)C=CC(CC1OC(=O)C(C)C(OC(C)=O)C1C)OC(C)=O (stereo not drawn) [discodermolide-3,7,11,17-tetraacetate]
Cytotoxicity compared to the parent molecule [1]: dramatic reduction in the activity

C=CC=CC(C)C(OC(N)=O)C(C)C(O)C(C)CC(C)=CC(C)C(OC(C)=O)C(C)C=CC(CC1OC(=O)C(C)C(OC(C)=O)C1C)OC(C)=O (stereo not drawn) [discodermolide-3,7,11-triacetate]
Cytotoxicity compared to the parent molecule [1]: reduced cytotoxicity

C=CC=CC(C)C(OC(N)=O)C(C)C(O)C(C)CC(C)=CC(C)C(O)C(C)C=CC(CC1OC(=O)C(C)C(OC(C)=O)C1C)OC(C)=O (stereo not drawn) [discodermolide-3,7-diacetate]
Cytotoxicity compared to the parent molecule [1]: greater cytotoxicity

C=CC=CC(C)C(OC(N)=O)C(C)C(O)C(C)CC(C)=CC(C)C(O)C(C)C=CC(O)CC1OC(=O)C(C)C(OC(C)=O)C1C (stereo not drawn) [discodermolide-3-acetate]
Cytotoxicity compared to the parent molecule [1]: greater cytotoxicity

C=CC=CC(C)C(OC(N)=O)C(C)C(O)C(C)CC(C)=CC(C)C(O)C(C)C=CC(CC1OC(=O)C(C)=CC1C)OC(=O)CCC(=O)O (stereo not drawn) [3-deoxy-2Δ-discodermolide-7-succinate]
Cell cycle effects (A549 human lung cells; 10 nM): indistinguishable from the untreated (control) cells | Cell cycle effects (100 nM) (A549 human lung cells; 100 nM, 24 hr, A549): indistinguishable from the untreated (control) cells | Cell cycle effects (A549 human lung cells; 1000 nM): indistinguishable from the untreated (control) cells | Cell cycle effects (A549 human lung cells; 3000 nM (highest concentration tested)): no cell cycle effects were noted; also recorded: slight induction of apoptosis and a general necrosis | IC50 P388 cells [2]: >5 µg/mL | IC50 ([2]; value in parentheses): > 7.41 µM | Microtubule bundling observation ([3]; 10 nM): indistinguishable from that of the untreated (control) cells | Microtubule bundling observation ([3]; 100 nM): indistinguishable from that of the untreated (control) cells | Microtubule bundling observation ([3]; 1000 nM): no bundling | Microtubule bundling in A549 cells ([3]; subjective rating versus discodermolide, Table 12): −
